Assay results from US20200163984A1, “USE OF ISOVALERYL SPIRAMYCIN I, II AND/OR III IN MANUFACTURING MEDICAMENT FOR TREATING AND/OR PREVENTING TUMOR, AND MEDICAMENT” (SHENYANG FUYANG PHARMACEUTICAL TECHNOLOGY CO., LTD., priority 2017, published 2020).

Legend:
[1] = tested on: transplanted tumor of human breast cancer cell MDA-MB-231; experiment: MDA-MB-231 transplanted tumor in nude mice
Method: (§1) Then cell concentration was adjusted to 1×10^7/ml with matrigel, then each nude mouse was inoculated subcutaneously with 0.2 ml of cells at its right armpit and recorded as the first day of inoculation. When the tumor grows to be greater than or equal to 100 mm^3, the mice were randomly divided into 11 groups with 6 mice in each group: a model group, a cyclophosphamide group, isovaleryl spiramycin I groups with doses of 25, 50 and 100 mg/kg, isovaleryl spiramycin II groups with doses of 25, 50 and 100 mg/kg, and isovaleryl spiramycin III groups with doses of 25, 50 and 100 mg/kg. Each group was continuously administered intragastrically for 30 days with a dose of 20 ml/kg. The mice were sacrificed the next day after drug withdrawal and the indicators were tested. The long diameter and short diameter of the tumor, and the body weight of each mouse were recorded every 3 days from drug administration to nude mouse sacrifice.
(§2) The body weight of the nude mice and the long diameter (a) and short diameter (b) of the transplanted tumor were measured every 3 days, and the tumor volume (v), relative tumor volume (RTV) and relative tumor proliferation rate (T/C) are calculated respectively according to the following formulas, wherein V=a×b^2/2; RTV=V/V0 (V0 is the tumor volume before administration, V is the tumor volume before sacrifice), and T/C (%)=treatment group RTV/model control group RTV×100%.
(§3) Each mouse was weighed and sacrificed. After the tumor was completely stripped off from the body of the mouse, the non-tumor tissues such as blood stains and fat were removed to weigh the tumor and calculate the tumor growth inhibition rate. The average tumor weight of each group of mice is used as an indicator of efficacy. Tumor growth inhibition rate (%)=(1−the average tumor weight of the treatment group/the average tumor weight of the model group)×100%.

[2] = tested on: transplanted tumor of human glioma cell U251; experiment: U251 transplanted tumor in nude mice
Method: as §1, with “U251 cells in a logarithmic growth phase were taken and subjected to a trypan blue exclusion experiment showing that the cell viability was more than 95%, then the cells were subjected to trypsinization, centrifugation, and supernatant removal. Then” for “Then”
as §2, §3

[3] = Thymus index and spleen index of H22 liver cancer tumor-bearing mice
Method: In the H22 liver cancer model, the mice inoculated with the tumor were randomly divided into groups with 10 mice in each group on the next day of inoculation. The groups included: a model control group, a positive drug cyclophosphamide control group (CTX, 26 mg/kg), isovaleryl spiramycin I groups with doses of 13, 26 and 52 mg/kg; isovaleryl spiramycin II groups with doses of 13, 26 and 52 mg/kg; isovaleryl spiramycin III groups with doses of 13, 26 and 52 mg/kg. Each group was continuously administered intragastrically for 7 days with a dose of 20 ml/kg.

[4] = Thymus index and spleen index of Lewis lung cancer tumor-bearing mice; settings: for Spleen Index (%) / Thymus Index (%): n = 6
Method: In the Lewis lung cancer model, the mice inoculated with the tumor were randomly divided into groups with 10 mice in each group the next day of inoculation. The groups included: a model control group, a positive drug cyclophosphamide control group (CTX, 30 mg/kg), isovaleryl spiramycin I groups with doses of 13, 26 and 52 mg/kg; isovaleryl spiramycin II groups with doses of 13, 26 and 52 mg/kg; isovaleryl spiramycin III groups with doses of 13, 26 and 52 mg/kg. Each group was continuously administered intragastrically for 15 days with a dose of 20 ml/kg.

[5] = MDA-MB-231, 30 mg/kg i.g. 30 days
[6] = MDA-MB-231, 25 mg/kg (low dose) i.g. 30 days
[7] = MDA-MB-231, 50 mg/kg (medium dose) i.g. 30 days
[8] = MDA-MB-231, 100 mg/kg (high dose) i.g. 30 days
[9] = U251, high dose (100 mg/kg in method) i.g. 30 days
[10] = U251, low dose (25 mg/kg in method) i.g. 30 days
[11] = U251, medium dose (50 mg/kg in method) i.g. 30 days

## O=P1(N(CCCl)CCCl)NCCCO1 (centres unmarked) [Cyclophosphamide, cyclophosphamide, reference compound]
[1]; [5]
  Body Weight (d 1): 21.65 ± 1.50 g
  Body Weight (d 30): 19.26 ± 1.49 g
  Inhibition Rate (tumor growth inhibition rate): 70.54%
  Relative Tumor Proliferation Rate (T/C): 37.73%
  Relative Tumor Volume (RTV): 5.89 ± 2.84
  Tumor Volume (d 1): 116.90 ± 7.18 mm3
  Tumor Volume (d 30): 691.84 ± 337.21 mm3
  Tumor Weight: 0.38 ± 0.27 g
[2]; U251 nude mice, 30 mg/kg
  Inhibition Rate (%): 69.31%
  Relative Tumor Proliferation Rate (T/C): 62.92%
  Relative Tumor Volume (RTV): 4.23 ± 0.95
  Tumor Weight: 0.42 ± 0.06 g
[2]; U251 nude mice, 30 mg/kg, d1
  Body Weight (g) (d1): 20.72 ± 0.48 g
  Tumor Volume (mm3) (d 1): 119.00 ± 11.13 mm3
[2]; U251 nude mice, 30 mg/kg, d30
  Body Weight (g) (d30): 19.40 ± 1.40 g
  Tumor Volume (mm3) (d30): 504.56 ± 93.91 mm3
[3]; H22 tumor-bearing mice, cyclophosphamide, P<0.01
  thymus index and spleen index compared with the control group: significantly lower
[3]; dose 26 mg/kg
  Spleen Index (%): 0.38 ± 0.09 %
  Thymus Index (%): 0.04 ± 0.02 %
[4]; Lewis tumor-bearing mice, cyclophosphamide, P<0.01
  spleen index compared with the control group: significantly lower
[4]; dose 26 mg/kg
  Spleen Index (%): 0.48 ± 0.09 %
  Thymus Index (%): 0.06 ± 0.02 %

## CO[C@@H]1[C@@H](O[C@@H]2O[C@H](C)[C@@H](O[C@H]3C[C@@](C)(O)[C@@H](OC(=O)CC(C)C)[C@H](C)O3)[C@H](N(C)C)[C@H]2O)[C@@H](CC=O)C[C@@H](C)[C@@H](O[C@H]2CC[C@H](N(C)C)[C@@H](C)O2)/C=C/C=C/C[C@@H](C)OC(=O)C[C@H]1O [Isovaleryl spiramycin I, isovaleryl spiramycin I]
[1]; [6]
  Inhibition Rate (tumor growth inhibition rate): 22.84%
  Relative Tumor Proliferation Rate (T/C): 69.71%
  Relative Tumor Volume (RTV): 10.89 ± 2.52
  Tumor Volume (d 1): 111.07 ± 8.47 mm3
  Tumor Volume (d 30): 1213.38 ± 299.29 mm3
  Tumor Weight: 1.79 ± 0.34 g
[1]; [7]
  Inhibition Rate (tumor growth inhibition rate): 55.17%
  Relative Tumor Proliferation Rate (T/C): 44.18%
  Relative Tumor Volume (RTV): 6.90 ± 2.43
  Tumor Volume (d 1): 116.00 ± 8.13 mm3
  Tumor Volume (d 30): 807.45 ± 319.26 mm3
  Tumor Weight: 1.04 ± 0.44 g
[1]; [8]
  Inhibition Rate (tumor growth inhibition rate): 69.11%
  Relative Tumor Proliferation Rate (T/C): 27.74%
  Relative Tumor Volume (RTV): 4.33 ± 3.47
  Tumor Volume (d 1): 111.91 ± 10.26 mm3
  Tumor Volume (d 30): 458.55 ± 338.74 mm3
  Tumor Weight: 0.72 ± 0.48 g
[1]; MDA-MB-231, low, medium and high doses, P<0.05
  tumor volume and relative tumor volume compared with the model group: significantly lower
[1]; mouse, in vivo
  mouse weight compared with the model group: no significant changes
[2]; [9]
  Relative Tumor Proliferation Rate (T/C): 25.80%
  tumor growth inhibition rate: 69.21%
[2]; [10]
  Relative Tumor Proliferation Rate (T/C): 76.40%
  tumor growth inhibition rate: 30.94%
[2]; U251, low, medium and high doses, P<0.05
  tumor volume and relative tumor volume compared with the model group: significantly lower
[2]; [11]
  Relative Tumor Proliferation Rate (T/C): 44.54%
  tumor growth inhibition rate: 44.53%
[2]; U251 nude mice, 25 mg/kg
  Inhibition Rate (%): 30.94%
  Relative Tumor Proliferation Rate (T/C): 76.40%
  Relative Tumor Volume (RTV): 12.69 ± 1.08
  Tumor Weight: 0.96 ± 0.08 g
[2]; U251 nude mice, 25 mg/kg, d1
  Tumor Volume (mm3) (d 1): 122.81 ± 10.35 mm3
[2]; U251 nude mice, 25 mg/kg, d30
  Tumor Volume (mm3) (d30): 1550.33 ± 72.99 mm3
[2]; U251 nude mice, 50 mg/kg
  Inhibition Rate (%): 44.53%
  Relative Tumor Proliferation Rate (T/C): 44.54%
  Relative Tumor Volume (RTV): 10.67 ± 1.09
  Tumor Weight: 0.77 ± 0.09 g
[2]; U251 nude mice, 50 mg/kg, d1
  Tumor Volume (mm3) (d 1): 124.39 ± 10.31 mm3
[2]; U251 nude mice, 50 mg/kg, d30
  Tumor Volume (mm3) (d30): 930.42 ± 204.72 mm3
[2]; U251 nude mice, 100 mg/kg
  Inhibition Rate (%): 69.21%
  Relative Tumor Proliferation Rate (T/C): 25.80%
  Relative Tumor Volume (RTV): 10.05 ± 0.71
  Tumor Weight: 0.43 ± 0.01 g
[2]; U251 nude mice, 100 mg/kg, d1
  Tumor Volume (mm3) (d 1): 124.88 ± 6.57 mm3
[2]; U251 nude mice, 100 mg/kg, d30
  Tumor Volume (mm3) (d30): 537.02 ± 93.66 mm3
[2]; mouse, in vivo
  mouse weight compared with the model group: no significant changes
[2]; mouse, in vivo, 25 mg/kg
  Body Weight (g) (d1): 21.03 ± 0.55 g
  Body Weight (g) (d30): 21.09 ± 0.53 g
[2]; mouse, in vivo, 50 mg/kg
  Body Weight (g) (d1): 20.78 ± 0.66 g
  Body Weight (g) (d30): 21.08 ± 0.54 g
[2]; mouse, in vivo, 100 mg/kg
  Body Weight (g) (d1): 21.10 ± 0.35 g
  Body Weight (g) (d30): 20.86 ± 0.66 g
[3]; dose 13 mg/kg
  Spleen Index (%): 0.72 ± 0.07%
  Thymus Index (%): 0.15 ± 0.07%
[3]; dose 26 mg/kg
  Spleen Index (%): 0.60 ± 0.15%
  Thymus Index (%): 0.14 ± 0.01%
[3]; dose 52 mg/kg
  Spleen Index (%): 0.86 ± 0.25 %
  Thymus Index (%): 0.12 ± 0.04%
[4]; dose 13 mg/kg
  Spleen Index (%): 0.72 ± 0.21%
  Thymus Index (%): 0.12 ± 0.03%
[4]; dose 26 mg/kg
  Spleen Index (%): 0.62 ± 0.15%
  Thymus Index (%): 0.13 ± 0.04%
[4]; dose 52 mg/kg
  Spleen Index (%): 0.77 ± 0.14 %
  Thymus Index (%): 0.12 ± 0.06%
